Measurements published in the NIST ThermoML archive (doi:10.1016/j.fluid.2006.12.011).

Assay: xn = mol fraction of the nth substance listed
Details: Liquid, Vibrating tube method

C1CC[C@H]2CCCC[C@H]2C1 [cis-decahydronaphthalene] + C1CC[C@H]2CCCC[C@@H]2C1
mass density [kg/m3]
Details	x1 = 0.2	x1 = 0.35	x1 = 0.5	x1 = 0.65	x1 = 0.8	x1 = 1
303.15 K, 100 kPa	867.4	871.5	875.5	879.2	883.4	888.5
303.15 K, 5000 kPa	870.6	874.6	878.5	882.3	886.3	891.4
303.15 K, 10000 kPa	873.8	877.7	881.6	885.3	889.4	894.4
303.15 K, 15000 kPa	876.8	880.7	884.5	888.3	892.3	897.3
303.15 K, 20000 kPa	879.7	883.6	887.5	891.2	895.2	899.9
303.15 K, 25000 kPa	882.6	886.4	890.3	894	897.9	902.8
303.15 K, 30000 kPa	885.3	889.2	893	896.7	900.6	905.5
303.15 K, 35000 kPa	888	891.8	895.6	899.3	903.2	908
303.15 K, 40000 kPa	890.7	894.5	898.2	901.9	905.7	910.6
303.15 K, 45000 kPa	893.2	896.9	900.7	904.4	908.1	913
303.15 K, 50000 kPa	895.6	899.4	903	906.7	910.5	915.3
303.15 K, 55000 kPa	898	901.7	905.4	909	912.8	917.6
303.15 K, 60000 kPa	900.3	904	907.7	911.3	915.1	919.9
303.15 K, 65000 kPa	902.6	906.3	909.9	913.6	917.3	922.1
323.15 K, 100 kPa	852.1	856.3	860.2	864.2	868.1	873.2
323.15 K, 5000 kPa	855.9	859.9	863.7	867.6	871.6	876.5
323.15 K, 10000 kPa	859.4	863.3	867.1	870.9	874.9	879.8
323.15 K, 15000 kPa	862.7	866.6	870.4	874.2	878.1	883
323.15 K, 20000 kPa	865.9	869.8	873.5	877.3	881.2	886
323.15 K, 25000 kPa	869	872.9	876.5	880.3	884.2	889
323.15 K, 30000 kPa	872	875.8	879.4	883.2	887	891.8
323.15 K, 35000 kPa	874.9	878.7	882.3	886.1	889.8	894.6
323.15 K, 40000 kPa	877.6	881.5	885.1	888.7	892.6	897.3
323.15 K, 45000 kPa	880.4	884.2	887.7	891.4	895.2	899.9
323.15 K, 50000 kPa	882.9	886.7	890.3	894	897.7	902.4
323.15 K, 55000 kPa	885.5	889.2	892.8	896.4	900.2	904.8
323.15 K, 60000 kPa	888	891.8	895.3	899	902.7	907.3
323.15 K, 65000 kPa	890.5	894.2	897.7	901.3	905	909.6
343.15 K, 100 kPa	837.2	841.1	844.9	849	853.2	857.8
343.15 K, 5000 kPa	841.2	845	848.8	852.7	857	861.5
343.15 K, 10000 kPa	845	848.9	852.5	856.5	860.6	865.1
343.15 K, 15000 kPa	848.8	852.5	856.2	860	864.2	868.6
343.15 K, 20000 kPa	852.2	855.9	859.6	863.4	867.5	871.9
343.15 K, 25000 kPa	855.6	859.3	862.9	866.7	870.7	875.1
343.15 K, 30000 kPa	858.8	862.6	866.2	870	873.9	878.3
343.15 K, 35000 kPa	862	865.6	869.2	873	876.9	881.2
343.15 K, 40000 kPa	865	868.6	872.2	875.9	879.8	884.1
343.15 K, 45000 kPa	867.9	871.6	875.1	878.8	882.6	887
343.15 K, 50000 kPa	870.8	874.4	878	881.6	885.4	889.7
343.15 K, 55000 kPa	873.6	877.1	880.6	884.3	888	892.3
343.15 K, 60000 kPa	876.2	879.7	883.1	886.9	890.6	894.9
343.15 K, 65000 kPa	878.9	882.4	885.8	889.5	893.2	897.4
